Measurements from ChEMBL document CHEMBL1131831, “A rapid method to identify exo-protease inhibitors” (Bioorg Med Chem Lett, 1999).

Key:
[1] = biological target: Leukocyte elastase (Homo sapiens); assay: Inhibition constant (Ki) when mixed with p-nitroanilide against human leukocyte elastase for the conversion of water-soluble compound to fluorescent oil-soluble compound
[2] = biological target: Leukocyte elastase (Homo sapiens); assay: Inhibition constant (Ki) against human leukocyte elastase.
Trypsin = Trypsin (Sus scrofa, UniProt P00761); assay: Inhibition constant (Ki) against trypsin enzyme for the conversion of water-soluble compound to fluorescent oil-soluble compound
Trypsin, sequence (P00761 whole entry): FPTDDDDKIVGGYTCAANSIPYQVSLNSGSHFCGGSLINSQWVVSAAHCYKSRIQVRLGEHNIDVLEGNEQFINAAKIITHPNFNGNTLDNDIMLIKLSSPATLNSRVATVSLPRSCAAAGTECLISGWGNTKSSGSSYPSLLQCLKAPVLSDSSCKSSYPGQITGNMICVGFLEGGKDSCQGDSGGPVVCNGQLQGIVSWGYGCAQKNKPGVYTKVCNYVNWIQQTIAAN

| Ki [1] | Ki [2] | Ki (Trypsin) | SMILES |
| --- | --- | --- | --- |
| 0.128 µM | 86 µM |  | CC(NC(=O)[C@H](C)NC(=O)c1cccc2c1Oc1c(C(=O)NC(C(=O)O)C(C)C)cccc1C2(C)C)C(=O)O (single isomer, unassigned) |
|  |  | ~800 µM | O=C1C=CC(=O)N1c1ccccc1 |
|  | 248 µM |  | CC(NC(=O)[C@H](C)NC(=O)c1cccc2c1Oc1c(C(=O)NC(C)C(=O)N[C@@H](C)C(=O)O)cccc1C2(C)C)C(=O)O (single isomer, unassigned) |
|  | 515 µM |  | CC(C)C(NC(=O)c1cccc2c1Oc1c(C(=O)N[C@H](C(=O)O)C(C)C)cccc1C2(C)C)C(=O)O (single isomer, unassigned) |
